According to ChEMBL document CHEMBL4619752, “Optimization and biological evaluation of thiazole-bis-amide inverse agonists of RORγt” (Bioorg Med Chem Lett, 2020):
Converted amounts (≈) assume the structure as drawn.

Key:
physchem [1] = conditions: buffer, pH 2
physchem [2] = conditions: buffer, pH 7
in vitro [3] = conditions: rat, microsomes
in vitro [4] = conditions: human, microsomes
in vivo [5] = conditions: rat, po, 50 mg/kg
in vivo [6] = conditions: rat, po, 50 mg/kg; remark: listed apart in the source
in vivo [7] = conditions: rat, po, 200 mg/kg
in vivo [8] = conditions: rat, po, 200 mg/kg; remark: listed apart in the source
in vivo [9] = conditions: rat, po, 200 mg/kg; remark: listed apart in the source
in vivo [10] = conditions: rat, po, 50 mg/kg; remark: listed apart in the source
in vivo [11] = conditions: rat, po, 50 mg/kg; remark: listed apart in the source
in vivo [12] = conditions: rat, po, 200 mg/kg; remark: listed apart in the source
in vivo [13] = conditions: rat, po, 50 mg/kg; remark: listed apart in the source
in vivo [14] = conditions: rat, po, 200 mg/kg; remark: listed apart in the source
in vivo [15] = conditions: rat, po, 50 mg/kg; remark: listed apart in the source
in vivo [16] = conditions: rat, po, 200 mg/kg; remark: listed apart in the source

Row | Structure (SMILES) | solubility (physchem [1]) [µM] | solubility (physchem [2]) [µM] | half-life (in vitro [3]) [h] | half-life (in vitro [4]) [h] | further results
1 | C[C@H](NS(=O)(=O)c1ccc(-c2sc(NC(=O)CC(C)(C)O)nc2C(=O)N2CCC(F)CC2)c(Cl)c1Cl)C(F)(F)F | 16 (≈ 10.4 µg/mL) | 15 (≈ 9.74 µg/mL) | 2.45 | > 3 | –
2 | CC[C@H](NS(=O)(=O)c1ccc(-c2sc(C(=O)NCC(C)(C)O)nc2C(=O)N(CC)CC)c(Cl)c1Cl)C(F)(F)F | 32 (≈ 20.3 µg/mL) | 44 (≈ 27.9 µg/mL) | > 3 | > 3 | –
3 | C[C@H](NS(=O)(=O)c1ccc(-c2sc(C(=O)NCC(C)(C)O)nc2C(=O)N2CCC[C@@H]2CF)c(Cl)c1Cl)C(F)(F)F | < 4 | 4 (≈ 2.6 µg/mL) | – | – | –
4 | CC(C)(O)CNC(=O)c1nc(CC2CCCCC2)c(-c2ccc(S(=O)(=O)NC(C)(C)C)c3ccccc23)s1 | – | < 1 | 0.783 | 1.25 | –
5 | CC(C)(O)CNC(=O)c1nc(C(=O)N2CCCCC2)c(-c2ccc(S(=O)(=O)NC(C)(C)C)c3ccccc23)s1 | – | 1.1 (≈ 0.63 µg/mL) | 0.2 | 1.35 | –
6 | C[C@H](NS(=O)(=O)c1ccc(-c2sc(C(=O)NCC(C)(C)O)nc2C(=O)N2CC[C@H](F)C[C@@H]2C)c(Cl)c1Cl)C(F)(F)F | 40 (≈ 26.5 µg/mL) | 54 (≈ 35.8 µg/mL) | 1.13 | > 3 | –
7 | C[C@H](NS(=O)(=O)c1ccc(-c2sc(C(=O)NCC(C)(C)O)nc2C(=O)N2CC3CC3C2)c(Cl)c1Cl)C(F)(F)F (some centres undefined) | 7 (≈ 4.41 µg/mL) | 8.7 (≈ 5.48 µg/mL) | – | – | –
8 | C[C@H](NS(=O)(=O)c1ccc(-c2sc(C(=O)NCC(C)(C)O)nc2C(=O)N2CC[C@@H](F)C[C@@H]2C)c(Cl)c1Cl)C(F)(F)F | 41 (≈ 27.2 µg/mL) | 47 (≈ 31.2 µg/mL) | – | – | –
9 | C[C@H](NS(=O)(=O)c1ccc(-c2sc(C(=O)NCC(C)(C)O)nc2C(=O)N2CCCC[C@@H]2C)c(Cl)c1Cl)C(F)(F)F | 19 (≈ 12.3 µg/mL) | 21 (≈ 13.6 µg/mL) | 0.817 | > 3 | –
10 | C[C@H](NS(=O)(=O)c1ccc(-c2sc(C(=O)NCC(C)(C)O)nc2C(=O)N2CCC(F)CC2)c(Cl)c1Cl)C(F)(F)F | 114 (≈ 74 µg/mL) | 116 (≈ 75.3 µg/mL) | > 3 | > 3 | AUC (in vivo [5]): 0.87 µg·h/mL; Cmax (in vivo [6]): 11.2 µg/mL; Cmax at 4 day (in vivo [7]): 1.9 µg/mL; Cmax at 14 day (in vivo [8]): 1.28 µg/mL; AUC (in vivo [9]): 282 µg·h/mL; AUC (in vivo [10]): 1.11 µg·h/mL; AUC (in vivo [11]): 31.5 µg·h/mL; AUC (in vivo [12]): 5.02 µg·h/mL; Cmax at 4 day (in vivo [13]): 0.252 µg/mL; AUC (in vivo [14]): 6 µg·h/mL; Cmax at 14 day (in vivo [15]): 0.417 µg/mL; Cmax (in vivo [16]): 49.4 µg/mL
